Results published in US8633167B2, “Method for the protection of trees” (Syngenta Crop Protection LLC, priority 2006, dated 2014).

System: cerambycids
Experiment: Single-tree protection study (Example 2): cerambycid attacks and larval feeding on standing loblolly pine
Format: in vivo
Conditions: for Cerambycid Feeding Area: bolts cut after tree mortality or at the end of the trial
Method: Two 20-year-old, recently thinned loblolly pine plantations were selected on land owned by Temple-Inland Forest Products Corporation about 5 km south of Wells (Angelina County), Tex. Trees in one plantation were injected for use in a bolt study (Example 1). Trees in a 0.2 ha section of the second plantation were injected as part of a single-tree protection study (Example 2). A staging area also was set up in the second plantation where bolts from the first plantation were exposed to bark beetles and wood borers.
Loblolly pine, 15-20 cm DBH, were selected in the second plantation in March 2004. Each treatment (the same as those used in Example 1) was injected into four cardinal points about 0.3 m above the ground on each of 6 trees in April (16th-23rd) using the Arborjet Tree IV™ system. After 5 weeks post-injection (May 28), frills were cut with a hatchet into the sapwood between the injection points near the base of the tree. A cellulose sponge was inserted into each cut and loaded with 10 ml of a 4:1 mix of sodium N-methyldithiocarbamate (MS) (Woodfume®; Osmose, Inc., Buffalo, N.Y.) plus dimethyl sulfoxide (DMSO) (Aldrich Chemical) (Roton 1987, Strom et al. 2004). This method reduces resin to near zero in 1-2 weeks. The intent was to stress the tree and make it susceptible to attack by bark beetles without killing it. […]
Three weeks after pheromone deployment (June 28), each tree was evaluated by marking a 30 cm section of bole at a height of 3 m. All visible Ips attacks and cerambycid egg niches were counted within the marked area. The number of trees with fading crowns also was recorded. Thereafter, the trees were evaluated weekly for crown fading. When mortality did occur, the trees were felled and two bolts taken and evaluated for attack success and gallery length as described in Example 1. […] Treatment efficacy was determined by comparing tree survival, beetle attacks and egg gallery length on treated and untreated bolts. As before, data were transformed and analyzed by GLM and the Fisher's Protected LSD test using the Statview statistical program.

Substance: 4″-deoxy-4″-N-methylamino avermectin B1a/B1b [Emamectin]
- Cerambycid Feeding Area (bolt height 3 m): 0.0 a
- Cerambycid Feeding Area (bolt height 8 m): 0.0 a
- Mean # of Attacks/0.3 Bole Section at 3 m after 24 days, Cerambycid (standing loblolly pine, after 24 days): 0.8 a
